Assay results taken from patent US20250230193A1, “CYCLIC COMPOUND HAVING SELECTIVE KRAS INHIBITORY EFFECT ON HRAS AND NRAS” (CHUGAI SEIYAKU KABUSHIKI KAISHA, priority 2022, published 2025).
Read-outs that look alike come from different tables or passages of the source. *1 amine or outer side, *2 acyl side, *3 side chain or, on linkers, in order; H or OH if unused. Where a SMILES comes first, the peptide text is derived from it. Bridges are numbered along the chain shown (N, C = ends). [ ]: non-standard residue; d: D form. The star is where a group is joined. hPhe(3,5-F2-4-CF3) = N[C@@H](CCc1cc(F)c(C(F)(F)F)c(F)c1)C(=O)O; NPrPhe(4-CF3) = CCCN[C@@H](Cc1ccc(C(F)(F)F)cc1)C(=O)O; X1 = CN([C@@H](CCCC=[*:3])C(=O)[*:2])[*:1]; X2 = C[C@@](CC=[*:3])(N[*:1])C(=O)[*:2]; NMeGly(cPent) = CN[C@H](C(=O)O)C1CCCC1; Hyp = O=C(O)[C@@H]1C[C@@H](O)CN1; NMeD = CN[C@@H](CC(=O)O)C(=O)O; Morpholide = C1CN(*)CCO1; Sar = CNCC(=O)O

How the values were obtained:
[1] = target: GDP-bound KRAS wild-type protein (Homo sapiens, UniProt P01116); assay: Binding to KRAS by surface plasmon resonance (SPR), Single Cycle Kinetics; settings: GDP-bound KRAS wild-type protein
[2] = target: GDP-bound NRAS wild-type protein (Homo sapiens, UniProt P01111); assay: Binding to NRAS by surface plasmon resonance (SPR), Single Cycle Kinetics; settings: SPR; for NRAS/KRAS (ratio of KD value with respect to NRAS to KD value with respect to KRAS): GDP-bound NRAS wild-type vs GDP-bound KRAS wild-type; for NRAS/KRAS (ratio of KD value for GDP-bound NRAS wild-type protein to KD value for KRAS): KD ratio class
Sequence of GDP-bound NRAS wild-type protein (P01111 whole entry): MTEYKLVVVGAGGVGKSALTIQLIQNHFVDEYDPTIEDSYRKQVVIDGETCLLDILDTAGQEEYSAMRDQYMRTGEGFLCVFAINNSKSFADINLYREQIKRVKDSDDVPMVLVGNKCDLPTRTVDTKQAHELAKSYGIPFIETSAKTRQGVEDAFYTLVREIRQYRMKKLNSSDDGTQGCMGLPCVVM

[3] = target: GDP-bound HRAS wild-type protein (Homo sapiens, UniProt P01112); assay: Binding to HRAS by surface plasmon resonance (SPR), Single Cycle Kinetics; settings: SPR; for HRAS/KRAS (ratio of KD value with respect to HRAS to KD value with respect to KRAS): GDP-bound HRAS wild-type vs GDP-bound KRAS wild-type; for HRAS/KRAS (ratio of KD value for GDP-bound HRAS wild-type protein to KD value for KRAS): KD ratio class
Sequence of GDP-bound HRAS wild-type protein (P01112 whole entry): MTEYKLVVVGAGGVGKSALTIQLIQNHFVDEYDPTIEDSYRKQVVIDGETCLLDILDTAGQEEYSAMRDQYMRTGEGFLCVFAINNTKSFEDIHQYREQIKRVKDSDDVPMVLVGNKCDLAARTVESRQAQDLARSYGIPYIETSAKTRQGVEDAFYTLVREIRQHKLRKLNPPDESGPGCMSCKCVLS

[4] = system: human lung cancer strain NCI-H441
[5] = read-out: NCI-H441 IC50, NCI-H441 cells, 4 days, CellTiter-Glo

SMILES | Kd ([1]; SPR, Single Cycle Kinetics) | NRAS/KRAS (ratio of KD value with respect to NRAS to KD value with respect to KRAS) [2] | HRAS/KRAS (ratio of KD value with respect to HRAS to KD value with respect to KRAS) [3] | IC50 [4] | Kd ([1]; SPR Single Cycle Kinetics, 1:1 binding model) | NRAS/KRAS (ratio of KD value with respect to GDP-bound NRAS wild-type protein to KD value with respect to KRAS) ([2]; KD ratio NRAS/KRAS, GDP-bound wild-type proteins) | HRAS/KRAS (ratio of KD value with respect to GDP-bound HRAS wild-type protein to KD value with respect to KRAS) ([3]; KD ratio HRAS/KRAS, GDP-bound wild-type proteins) | NRAS/KRAS (ratio of KD value for GDP-bound NRAS wild-type protein to KD value for KRAS) [2] | HRAS/KRAS (ratio of KD value for GDP-bound HRAS wild-type protein to KD value for KRAS) [3] | IC50 [4, 5]
CCCN1C(=O)CN(C)C(=O)CN(C)C(=O)[C@H]([C@@H](C)CC)NC(=O)[C@@H]2CCC/C=C\C[C@](C)(NC(=O)[C@@H]3C[C@@H](OCC)CN3C(=O)[C@H](CCc3cc(F)c(C(F)(F)F)c(F)c3)NC(=O)CN(C)C(=O)[C@@H]1Cc1ccc(C(F)(F)F)cc1)C(=O)N(C)[C@@H](C1CCCC1)C(=O)N(C)[C@H](C(=O)N1CCOCC1)CC(=O)N2C [PP0901] ([X1]I[Sar][Sar][NPrPhe(4-CF3)][Sar][hPhe(3,5-F2-4-CF3)][Hyp](Et)[X2][NMeGly(cPent)][NMeD]-Morpholide; staple (Z) 1-9; lactam N-11) | 3 nM | B (a compound having 3 or more and less than 10 is denoted as B) | B (a compound having 3 or more and less than 10 is denoted as B) | 332 nM | – | – | – | – | – | –
CC[C@H](C)[C@@H]1NC(=O)[C@@H](CC(C)C)N(C)C(=O)CSC[C@H](C(=O)N(C)C)N(C)C(=O)[C@@H](C2CCCC2)N(C)C(=O)C2(CCCC2)NC(=O)[C@@H]2CCCN2C(=O)[C@H](CCc2cc(F)c(C(F)(F)F)c(F)c2)NC(=O)CN(C)C(=O)[C@H](Cc2ccc(C(F)(F)F)cc2)N2CC=CC[C@@H](C2=O)N(C)C(=O)CN(C)C1=O [PP3108] | – | – | – | 9250 nM | 870 nM | C (A compound having a KD ratio of 0.1 or more and less than 3 is denoted as C) | B (a compound having 3 or more and less than 10 is denoted as B) | – | – | –
CC[C@H](C)[C@@H]1NC(=O)[C@H](CC2CC2)N(C)C(=O)C[C@@H](C(=O)N(C)C)N(C)C(=O)[C@H](C2CCCC2)N(C)C(=O)C2(CCCC2)NC(=O)[C@@H]2C[C@H](C)CN2C(=O)[C@H](CCc2cc(F)c(C(F)(F)F)c(F)c2)NC(=O)CN(C)C(=O)[C@H](Cc2ccc(C(F)(F)F)cc2)N2CC/C=C\C[C@@H](C2=O)N(C)C(=O)CN(C)C1=O [PP1511] | 0.099 nM | – | – | – | – | – | – | AA (a compound having 20 or more is denoted as AA) | A (a compound having 10 or more and less than 20 is denoted as A) | 13.7 nM
CC[C@H](C)[C@@H]1NC(=O)[C@H](C)N(C)C(=O)C[C@@H](C(=O)N(C)C)N(C)C(=O)[C@H](C2CCCC2)N(C)C(=O)C2(CCC2)NC(=O)[C@@H]2CCCN2C(=O)[C@H](CCc2cc(F)c(C(F)(F)F)c(F)c2)NC(=O)CN(C)C(=O)[C@H](Cc2ccc(C(F)(F)F)cc2)N2CC/C=C\C[C@@H](C2=O)N(C)C(=O)CN(C)C1=O [PP1271] | 0.054 nM | – | – | – | – | – | – | AA (a compound having 20 or more is denoted as AA) | A (a compound having 10 or more and less than 20 is denoted as A) | 90.7 nM
CCO[C@@H]1C[C@H]2C(=O)NC3(CC(F)(F)C3)C(=O)N(C)[C@@H](C3CCCC3)C(=O)N(C)C(C3CCCCC3)CC(=O)N(C)[C@@H](COC)C(=O)N[C@@H]([C@@H](C)CC)C(=O)N(C)CC(=O)N(C)[C@H]3C/C=C\CCN(C3=O)[C@@H](Cc3ccc(C(F)(F)F)cc3)C(=O)N(C)CC(=O)N[C@@H](CCc3cc(F)c(C(F)(F)F)c(F)c3)C(=O)N2C1 (stereo partly shown) [PP1586] | 0.76 nM | – | – | – | – | – | – | A (a compound having 10 or more and less than 20 is denoted as A) | A (a compound having 10 or more and less than 20 is denoted as A) | 85.5 nM
CCO[C@@H]1C[C@H]2C(=O)NC3(CCC3)C(=O)N(C)[C@@H](C(CC)CC)C(=O)N(C)C(C(C)C)CC(=O)N(C)[C@@H](CC)C(=O)N[C@@H]([C@@H](C)CC)C(=O)N(C)CC(=O)N(C)[C@H]3C/C=C\CCN(C3=O)[C@@H](Cc3ccc(C(F)(F)F)cc3)C(=O)N(C)CC(=O)N[C@@H](CCc3cc(F)c(C(F)(F)F)c(F)c3)C(=O)N2C1 (stereo partly shown) [PP1589] | 1.8 nM | – | – | – | – | – | – | A (a compound having 10 or more and less than 20 is denoted as A) | A (a compound having 10 or more and less than 20 is denoted as A) | 86.6 nM
CCO[C@@H]1C[C@H]2C(=O)NC3(CCC3)C(=O)N(C)[C@@H](C3CCCC3)C(=O)N(C)[C@H](C(=O)N(C)C)CC(=O)N(C)[C@@H](CC3CC3)C(=O)N[C@@H]([C@@H](C)CC)C(=O)N(C)CC(=O)N(C)[C@H]3C/C=C\CCN(C3=O)[C@@H](Cc3ccc(C(F)(F)F)cc3)C(=O)N(C)CC(=O)N[C@@H](CCc3ccc(C(F)(F)F)c(OC)c3)C(=O)N2C1 [PP1247] | 0.046 nM | – | – | – | – | – | – | A (a compound having 10 or more and less than 20 is denoted as A) | A (a compound having 10 or more and less than 20 is denoted as A) | 6.4 nM
CCO[C@@H]1C[C@H]2C(=O)NC3(CCC3)C(=O)N(C)[C@@H](C3CCCC3)C(=O)N(C)[C@H](C(=O)N(C)C)CC(=O)N(C)[C@@H](CC3CCCC3)C(=O)N[C@@H]([C@@H](C)CC)C(=O)N(C)CC(=O)N(C)[C@H]3C/C=C\CCN(C3=O)[C@@H](Cc3ccc(C(F)(F)F)cc3)C(=O)N(C)CC(=O)N[C@@H](CCc3ccc4sccc4c3)C(=O)N2C1 [PP1261] | 0.44 nM | – | – | – | – | – | – | A (a compound having 10 or more and less than 20 is denoted as A) | A (a compound having 10 or more and less than 20 is denoted as A) | 76.8 nM
CCO[C@@H]1C[C@H]2C(=O)NC3(CCC3)C(=O)N(C)[C@@H](C3CCCC3)C(=O)N(C)[C@H](C(=O)N3CCOCC3)CC(=O)N(C)[C@@H](CC(C)C)C(=O)N[C@@H]([C@@H](C)CC)C(=O)N(C)CC(=O)N(C)[C@H]3CCCCCN(C3=O)[C@@H](Cc3ccc(F)cc3F)C(=O)N(C)CC(=O)N[C@@H](CCc3cc(F)c(C(F)(F)F)c(F)c3)C(=O)N2C1 [PP0916] | 0.34 nM | B (a compound having 3 or more and less than 10 is denoted as B) | B (a compound having 3 or more and less than 10 is denoted as B) | 35.9 nM | – | – | – | – | – | –
CCCOC[C@H]1C(=O)N[C@@H]([C@@H](C)CC)C(=O)N(C)CC(=O)N(C)[C@H]2C/C=C\CCN(C2=O)[C@@H](Cc2ccc(C(F)(F)F)cc2)C(=O)N(C)CC(=O)N[C@@H](CCc2cc(F)c(C(F)(F)F)c(F)c2)C(=O)N2C[C@H](OCC)C[C@H]2C(=O)NC2(CC(C)(C)C2)C(=O)N(C)[C@@H](C2CCCC2)C(=O)N(C)[C@H](C(=O)N(C)C)CC(=O)N1C [PP1398] | 0.032 nM | – | – | – | – | – | – | A (a compound having 10 or more and less than 20 is denoted as A) | A (a compound having 10 or more and less than 20 is denoted as A) | 2.3 nM
